Values of other authors, collected in paper PMC4163017 (ChemMedChem, 2014).
“And” between values parts separate entries of the source, which are not always exact repeats. Equal entries are not always repeated. Where two headings read alike, the source gives them in different places.

Assays:
[1] = tested on: 5'-fluorescein-labeled IRES SLIIb RNA; settings: ref [4]
[2] = tested on: ET (luc-ubi-neo/ET) Huh7 human hepatoma cells; settings: 72 h, CytoTox-1, previously reported, ref [4]
IRES SLIIb RNA = settings: read-out: KD (dissociation constant); free peptide GGHYrFK-amide; ref [4]
[3] = tested on: HCV RNA replicon in ET (luc-ubi-neo/ET) Huh7 cells; settings: HCV cellular replicon assay; ref [4]
[4] = fixed catalyst concentration with varying [RNA]

Row | Substance | Km [1, 4] [µM] | kcat [1, 4] | kcat/KM [1, 4] [M⁻¹ s⁻¹] | Turnover Number [1] | Cytotoxicity TC50 [2] | Cytotoxicity TC50 ([2]; listed as [GGHYrFK-amide]-Cu^2+, 1-Cu) [µM] | Kd (IRES SLIIb RNA) [µM] | activity in combination with recombinant interferon alpha-2b [3]
1 | Cu-GGHYrFK-amide [1-Cu] | 0.85 ± 0.09 | 0.00883 s⁻¹ and 0.00883 ± 0.00033 s⁻¹ | 10300 | 32 | greater than 100 µM | > 100 | 0.044 ± 0.002 | additive to slightly synergic activity
2 | GGHYrFK-amide |  |  |  |  |  |  | 0.044 | 
